Assays:
[1] = target: B-Raf kinase (SEQ. ID NO: 2) (Homo sapiens (Human), UniProt P15056); assay: Biochemical Assay for B-Raf (1); details: Table J, assay version (1); read-out: BRAF (1) IC50
How it was run: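 IC50 derived by four-parameter sigmoidal fit of percent inhibition, normalised to uninhibited and reference-inhibitor controls, using reaction rates over 4–5 h. Coupled spectrophotometric readout (NADH loss at 340 nm, 6 h, 30° C.); 1 mM ATP, 30.1 nM MEK, 0.13 nM B-Raf, pH 7.5 Tris buffer, 1% DMSO.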

[2] = target: A-Raf kinase (SEQ. ID No: 1) (Homo sapiens (Human), UniProt P10398, Y301D/Y302D); assay: Biochemical Assay for A-Raf (1); details: Table J, assay version (1); read-out: ARAF (1) IC50
How it was run: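 IC50 values were derived by four-parameter sigmoidal fitting of percent inhibition, calculated from reaction rates over the 4–5 h window. Absorbance at 340 nm was tracked for 6 h at 30 °C via coupled PK/LDH NADH depletion. Conditions: 1 mM ATP, 30.1 nM MEK substrate, 5.55 nM A-Raf (Y301D/Y302D), Tris pH 7.5, 1% DMSO.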

H2405 cells = assay: H2405 Cell Proliferation Assay (1); type: cell-based; details: Homo sapiens, NCI-H2405
Method: H2405 Cell Proliferation Assay (1)
(§1) H2405 cells (catalog #CRL-5994) are obtained from the American Type Culture Collect (ATTC, Manassas, VA). Briefly, cells were grown in RPMI 1640 supplemented with 5% characterized fetal bovine serum (Invitrogen, Carlsbad, CA) and 1% Penicillin/Streptomycin/L-Glutamine at 37° C., 5% CO2, and 95% humidity. Cells are expanded until reaching 70-95% confluency at which point they are sub-cultured or harvested for assay use. A serial dilution of test compound is dispensed into a 96-well black clear bottom plate in triplicate. Three thousand cells are added per well in 200 μL complete growth medium in the 96-well plate. Plates are incubated for 67-72 h at 37° C., 5% CO2, and 95% humidity. At the end of the incubation, 40 μL of a 440 μM solution of resazurin (Sigma, St. Louis, MO) in PBS is added to each well of the plate and plates are incubated for an additional 5-6 h at 37° C., 5% CO2, and 95% humidity. Plates are read on a Synergy2 or equivalent reader (Biotek, Winooski VT) using an excitation of 540 nm and an emission of 600 nm. Data is analyzed using Prism software (GraphPad, San Diego, CA) to calculate IC50 values.

[3] = target: C-Raf kinase (SEQ. ID NO: 3) (Homo sapiens (Human), UniProt P04049, Y340D/Y341D); assay: Biochemical Assay for C-Raf (1); details: Table J, assay version (1); read-out: CRAF (1) IC50
How it was run: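 IC50 values come from a four-parameter fit of percent inhibition, using the reaction rate over 4–5 h of a 6 h continuous 340 nm read at 30 °C. The enzyme mix was C-Raf 0.43 nM, MEK substrate 30.1 nM and ATP 1 mM, in a PK/LDH NADH-coupled format in Tris pH 7.5 with 1% DMSO.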

A375 cells = assay: A375 Cell Proliferation Assay (1); type: cell-based; details: Homo sapiens, A-375
Method: A375 Cell Proliferation Assay (1)
as §1, with “A375 cells” for “H2405 cells”, “(catalog (#CRL-1619)” for “(catalog #CRL-5994)”, “in DMEM High Glucose” for “in RPMI 1640”, “with 10%” for “with 5%”, “triplicate. Two” for “triplicate. Three”, “thousand five hundred” for “thousand”

Miapaca-2 cells [4] = assay: MiaPaca-2 Cell Proliferation Assay (1); type: cell-based; details: Homo sapiens, MIA PaCa-2, single agent, read-out: MiaPaca2 (1) IC50
Method: MiaPaca-2 Cell Proliferation Assay (1)
as §1, with “Miapaca-2 cells” for “H2405 cells”, “(catalog #CRL-1420)” for “(catalog #CRL-5994)”, “in DMEM” for “in RPMI 1640”, “with 10%” for “with 5%”, “Carlsbad, CA), 2.5% New Zealand sourced horse serum” for “Carlsbad, CA)”

WM3928 cells = assay: WM3928 Cell Proliferation Assay (1); type: cell-based
Method: WM3928 Cell Proliferation Assay (1)
WM3928 cells (#WM3928-01-0001) are obtained from Rockland Immunochemicals Inc (Gilbertsville, PA). Briefly, cells were grown in MCDB 153 medium (Sigma, #M7403, St. Louis, MO) supplemented with 20% Leibovitz's L-15 (ThermoFisher #11415-064, Waltham, MA), 2% heat inactivated fetal bovine serum (ThermoFisher, #A3840001, Waltham, MA), 5 μg/mL Insulin (Bovine Pancreas) (Sigma, #I0516, St. Louis, MO), 1.68 mM Calcium Chloride (Sigma, #C-34006, St. Louis, MO) and 1% Penicillin/Streptomycin/L-Glutamine (ThermoFisher #10378016, Waltham, MA) at 37° C., 5% CO2, and 95% humidity. Cells are expanded until reaching 70-95% confluency at which point they are subcultured or harvested for assay use. A serial dilution of test compound is dispensed into a 96-well black clear bottom plate in triplicate. Three thousand cells are added per well in 200 μL complete growth medium in the 96-well plate. Plates are incubated for 67-72 hours at 37° C., 5% CO2, and 95% humidity. At the end of the incubation, 40 μL of a 440 μM solution of resazurin (Sigma, #199303, St. Louis, MO) in PBS is added to each well of the plate and plates are incubated for an additional 6-7 hours at 37° C., 5% CO2, and 95% humidity. Plates are read on a Synergy2 or equivalent reader (Biotek, Winooski VT) using an excitation of 540 nm and an emission of 600 nm. Data is analyzed using Prism software (GraphPad, San Diego, CA) to calculate IC50 values.

Miapaca-2 cells [5] = assay: MiaPaca-2 Combination Cell proliferation Assay (1) with cobimetinib; type: cell-based; details: MiaPaca-2 cell proliferation, read-out: MiaPaca-2 Combo (1) IC50
Method: MiaPaca-2 Combination Cell proliferation Assay (1)
Miapaca-2 cells (catalog #CRL-1420) are obtained from the American Type Culture Collect (ATCC, Manassas, VA). Briefly, cells were grown in DMEM supplemented with 10% characterized fetal bovine serum (Invitrogen, Carlsbad, CA), 2.5% New Zealand sourced horse serum and 1% Penicillin/Streptomycin/L-Glutamine at 37° C., 5% CO2, and 95% humidity. Cells are expanded until reaching 70-95% confluency at which point they are subcultured or harvested for assay use. A serial dilution of test compound was dispensed into multiple 96-well black clear bottom plates in triplicate. A serial dilution of complete growth medium containing cobimetinib was prepared at twice the final concentration and 100 μL was dispensed across the test compound titration in triplicate. Three thousand cells are added per well in 100 μL complete growth medium in each 96-well plate. Plates are incubated for 67-72 hours at 37° C., 5% CO2, and 95% humidity. At the end of the incubation, 40 μL of a 440 μM solution of resazurin (Sigma, St. Louis, MO) in PBS is added to each well of the plate and plates are incubated for an additional 5-7 hours at 37° C., 5% CO2, and 95% humidity. Plates are read on a Synergy2 or equivalent reader (Biotek, Winooski VT) using an excitation of 540 nm and an emission of 600 nm. Drug synergy was assessed via BLISS analysis in the Combenefit software (Cancer Research UK Cambridge Institute, Cambridge, UK). Data is analyzed using Prism software (Graphpad, San Diego, CA) to calculate IC50 values. Shifts in test compound IC50 values are reported from top-constrained combination therapy curves.

[6] = target: B-Raf (V600E) (SEQ. ID NO: 4) kinase (Homo sapiens (Human), UniProt P15056, V600E); assay: Biochemical Assay for B-Raf (V600E) (1); details: Table J, BRAF V600E, assay version (1); read-out: BRAF VE (1) IC50
How it was run: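 Serially diluted compounds tested against 0.03 nM enzyme with 30.1 nM MEK substrate and 1 mM ATP (Tris pH 7.5, 15 mM MgCl2), ATP use coupled to NADH loss via PK/LDH. A340 monitored continuously 6 h, 30 °C; IC50 fitted (four-parameter) from the 3–4 h rate versus no-compound and known-inhibitor controls.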

Chain of C-Raf kinase (SEQ. ID NO: 3) (P04049 307-648 Y340D/Y341D): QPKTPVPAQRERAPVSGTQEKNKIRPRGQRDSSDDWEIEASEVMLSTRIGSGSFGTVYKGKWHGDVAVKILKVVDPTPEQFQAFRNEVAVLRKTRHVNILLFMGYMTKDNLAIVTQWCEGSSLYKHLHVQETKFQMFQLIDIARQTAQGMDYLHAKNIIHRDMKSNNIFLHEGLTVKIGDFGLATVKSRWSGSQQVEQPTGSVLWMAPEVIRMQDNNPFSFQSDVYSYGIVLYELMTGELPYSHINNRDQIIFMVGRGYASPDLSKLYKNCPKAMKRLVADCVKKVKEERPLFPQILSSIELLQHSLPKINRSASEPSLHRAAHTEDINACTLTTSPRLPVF
Chain of B-Raf kinase (SEQ. ID NO: 2) (P15056 416-766): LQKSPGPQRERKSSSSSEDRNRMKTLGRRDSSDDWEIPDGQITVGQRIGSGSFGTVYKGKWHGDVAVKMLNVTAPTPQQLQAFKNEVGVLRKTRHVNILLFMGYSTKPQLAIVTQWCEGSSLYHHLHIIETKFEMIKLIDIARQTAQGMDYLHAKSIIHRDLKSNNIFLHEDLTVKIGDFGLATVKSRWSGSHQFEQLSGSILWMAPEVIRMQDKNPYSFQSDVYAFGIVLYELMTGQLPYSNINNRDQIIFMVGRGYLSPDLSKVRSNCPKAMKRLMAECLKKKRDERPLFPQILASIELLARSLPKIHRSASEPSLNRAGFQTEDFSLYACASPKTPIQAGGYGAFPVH
Chain of A-Raf kinase (SEQ. ID No: 1) (P10398 other isoform, or with tags, fused parts or gaps Y301D (already in the parent)/Y302D (already in the parent)): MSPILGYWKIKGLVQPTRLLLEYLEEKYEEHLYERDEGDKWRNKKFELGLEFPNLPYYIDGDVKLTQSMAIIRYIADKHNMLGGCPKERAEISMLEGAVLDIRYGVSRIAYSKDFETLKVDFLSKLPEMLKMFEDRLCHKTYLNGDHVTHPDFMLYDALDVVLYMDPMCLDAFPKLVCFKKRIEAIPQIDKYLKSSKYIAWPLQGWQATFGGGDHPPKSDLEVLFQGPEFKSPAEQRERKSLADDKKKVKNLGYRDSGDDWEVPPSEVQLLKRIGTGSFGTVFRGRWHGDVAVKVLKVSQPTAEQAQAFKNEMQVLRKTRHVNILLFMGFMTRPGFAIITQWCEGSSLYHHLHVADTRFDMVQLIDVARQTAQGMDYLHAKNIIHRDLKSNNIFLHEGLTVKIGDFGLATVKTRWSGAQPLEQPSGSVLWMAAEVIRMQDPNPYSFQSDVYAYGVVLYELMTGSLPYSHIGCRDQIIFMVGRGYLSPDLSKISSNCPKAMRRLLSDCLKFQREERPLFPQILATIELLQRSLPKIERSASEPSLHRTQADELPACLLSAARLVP
Chain of B-Raf (V600E) (SEQ. ID NO: 4) kinase (P15056 416-766 V600E): as the sequence (P15056 416-766) above, with V185E counted along it

Row | Compound | IC50 [1] [nM] | IC50 [2] [nM] | IC50 (H2405 cells) [nM] | IC50 [3] [nM] | IC50 (A375 cells) [nM] | IC50 (Miapaca-2 cells [4]) [nM] | IC50 (WM3928 cells) [nM] | IC50 (Miapaca-2 cells [5]) [nM] | IC50 [6] [nM]
1 | Cc1ccc(NC(=O)c2ccnc(C(F)(F)F)c2)cc1-c1cc(-c2ccnc(N)c2)n(C)c(=O)c1 [Example 53] | 500 to 1000 | 1000 to 10000 | 1000 to 10000 | 100 to 500 | 1000 to 10000 | – | – | – | –
2 | Cc1ccc(NC(=O)c2ccnc(C(C)(C)C#N)c2)cc1-c1ccnc(-c2ccncc2)c1 [Example 55] | – | 1000 to 10000 | – | – | 500 to 1000 | 1000 to 10000 | – | – | –
3 | Cc1ccc(NC(=O)c2ccnc(C(F)(F)F)c2)cc1-c1cccc(-c2ccnc(NC(=O)C3CC3)c2)c1 [Example 58] | – | 1000 to 10000 | ≤ 100 | – | 100 to 500 | 1000 to 10000 | 100 to 500 | – | –
4 | Cc1ccc(NC(=O)c2ccnc(C(C)(C)C#N)c2)cc1-c1cccc(-c2cc(NC(=O)C(C)(C)C)ncn2)c1 [Example 210] | 500 to 1000 | 1000 to 10000 | – | 500 to 1000 | – | – | – | 100 to 500 | ≤ 100
5 | CNc1cc(-c2cccc(-c3cc(NC(=O)c4ccnc(C(C)(C)C#N)c4)cnc3C)c2)ncn1 [Example 227] | 100 to 500 | 1000 to 10000 | 1000 to 10000 | 100 to 500 | 1000 to 10000 | – | – | – | –
6 | Cc1ccc(NC(=O)c2cc(C3CC3)n(C)n2)cc1-c1ccnc(-c2ccnc(NC(=O)C3CC3)c2)n1 [Example 236] | – | – | 100 to 500 | – | 1000 to 10000 | 1000 to 10000 | 500 to 1000 | – | –
7 | COC(=O)Nc1cc(-c2cncc(-c3cc(NC(=O)c4ccnc(C(C)(F)F)c4)ccc3C)c2)ncn1 [Example 238] | – | – | 100 to 500 | – | ≤ 100 | 1000 to 10000 | ≤ 100 | 100 to 500 | –
8 | Cc1ccc(NC(=O)c2cnnc(C3CC3)c2)cc1-c1nccc(-c2ccnc(NC(=O)C3CC3)c2)n1 [Example 272] | – | 1000 to 10000 | 100 to 500 | – | 1000 to 10000 | 1000 to 10000 | 100 to 500 | – | –

Reference: patent US12319655B2, “RAF kinase inhibitors and methods of use thereof” (Deciphera Pharmaceuticals, LLC, priority 2021, dated 2025)
